Measurements as given in patent US20210371459A1, “DIMERIC PEPTIDE INHIBITORS OF APOPTOSIS PROTEINS” (Hepagene Therapeutics (HK) Limited, priority 2017, published 2021).

Columns and labels:
Settings in all cases: FP, probe AbuRPFK-5FAM, 60 min at 25° C.
XIAP-BIR3 = target: T1, XIAP-BIR3 (Homo sapiens, UniProt P98170); assay: XIAP-BIR3 fluorescence polarization binding assay
T1 construct: purchased Reaction Biology APT-11-374
Excerpt: (§1) IAPs are one main cause of cancer development and may result from overexpression of anti-apoptotic proteins. This protocol establishes three binding assays for XIAP Bir3 domain, cIAP1 and cIAP2 using FP (Fluorescence polarization) technology. The fluorescence probe used is a synthetic peptide conjugated to 5-carboxyfluorescein (AbuRPFK-5FAM). The fluorescence polarization value (mP) was detected by Envision, which was used to reflect the binding degree of protein and fluorescent marker. Reagents and equipment used in the assay are listed below, followed by the protocol.
(§2) • a) Prepare 100 times of the final cpd concentration in appropriate tube and transfer 5 uL compound (“cpd”) to 45 μL 1× reaction buffer with 10% DMSO. • b) The final reference cpd concentration is 10000, 3333.3, 1111.1, 370.4, 123.4, 41.2, 13.7, 4.57, 1.52, 0.51, 0.17 and 0 nM. So the 100 times of the concentration is 1000, 333.3, 111.1, 37.04, 12.34, 4.12, […], 0.15, 0.05, 0.017 and 0 μM. The final test cpds concentration is 3333.3, 1111.1, 370.4, 123.4, 41.2, 13.7, 4.57, 1.52, 0.51, 0.17, 0.057 and 0 nM. So the 100 times of the concentration is 333.3, 111.1, 37.04, 12.34, 4.12, […], 0.15, 0.05, 0.017, 0.0057 and 0 μM • c) Add 8 μL/well each dose enzyme to 384 well microplate (ProxiPlate-384 F Plus, 6008260) using multichannel pipette, prepared in step 2.1.1.2 • d) Centrifuge at 1000 rpm. • e) Add 2 μL/well cpd to 384 well microplate (ProxiPlate-384 F Plus, 6008260) using multichannel pipette, prepared in step a). • f) Centrifuge at 1000 rpm. RT, 15 min. • g) Start the assay by adding 10 uL/well substrate (prepared in step 2.1.1.3) to the same 384 well microplate using multichannel pipette • h) Centrifuge at 1000 rpm. • i) Cover the assay plate and incubate for 60 min at 25° C. • j) Read on Envision 2104 for mP and plot the IC50s with mP values. • k) Data analysis: IC50s were determined based on a non-linear regression analysis of data collected.

cIAP1-BIR3 = target: T2, cIAP1-BIR3 (Homo sapiens, UniProt Q13490); assay: cIAP1-BIR3 fluorescence polarization binding assay
T2 construct: cIAP1-BIR3; Reaction Biology; APT-11-370; purchased Reaction Biology APT-11-370
T2 sequence (Q13490 253-363 limits assumed): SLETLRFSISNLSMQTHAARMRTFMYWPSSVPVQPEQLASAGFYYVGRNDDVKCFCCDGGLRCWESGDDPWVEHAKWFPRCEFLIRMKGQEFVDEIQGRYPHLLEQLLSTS
Excerpt: as §1, §2

cIAP2-BIR3 = target: T3, cIAP2-BIR3 (Homo sapiens, UniProt Q13489); assay: cIAP2-BIR3 fluorescence polarization binding assay
T3 construct: cIAP2-BIR3; Reaction Biology; APT-11-372; purchased Reaction Biology APT-11-372
T3 sequence (Q13489 238-349 limits assumed): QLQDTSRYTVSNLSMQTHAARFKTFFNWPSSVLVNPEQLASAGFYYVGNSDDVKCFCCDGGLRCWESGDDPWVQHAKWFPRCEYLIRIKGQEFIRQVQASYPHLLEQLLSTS
Excerpt: as §1, §2

T1 sequence (P98170 241-356 limits assumed): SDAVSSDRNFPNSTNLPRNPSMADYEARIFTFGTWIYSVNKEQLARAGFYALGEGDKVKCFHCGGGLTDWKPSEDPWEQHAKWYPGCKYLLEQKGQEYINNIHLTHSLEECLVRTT

| Structure (SMILES) | IC50 (XIAP-BIR3) | IC50 (cIAP1-BIR3) | IC50 (cIAP2-BIR3) |
| --- | --- | --- | --- |
| CC[C@H](C)[C@H](NC(=O)[C@H](C)NC)C(=O)N1C[C@@H](OCCCN2CCN(CCCO[C@H]3C[C@@H](C(=O)N[C@@H]4CCCc5ccccc54)N(C(=O)[C@@H](NC(=O)[C@H](C)NC)[C@@H](C)CC)C3)CC2)C[C@H]1C(=O)N[C@@H]1CCCc2ccccc21 [Compound II-G, (2S,4S)-1-[(2S)-3-Methyl-2-[(2S)-2-(methylamino)propanamido]pentanoyl]-4-{3-[4-(3-{[(3S,5S)-1-[(2S)-3-methyl-2-[(2S)-2-(methylamino)propanamido]pentanoyl]-5-{[(1R)-1,2,3,4-tetrahydronaphthalen-1-yl]carbamoyl}pyrrolidin-3-yl]oxy}propyl)piperazin-1-yl]propoxy}-N-[(1R)-1,2,3,4-tetrahydronaphthalen-1-yl]pyrrolidine-2-carboxamide] | 0.1 to 10 nM | 0.1 to 10 nM | 0.1 to 10 nM |
| CN[C@@H](C)C(=O)N[C@H](C(=O)N1C[C@@H](OCCCN2CCN(CCCO[C@H]3C[C@@H](C(=O)N[C@@H]4CCCc5ccccc54)N(C(=O)[C@@H](NC(=O)[C@H](C)NC)C4CCC4)C3)CC2)C[C@H]1C(=O)N[C@@H]1CCCc2ccccc21)C1CCC1 [Compound II-H, (2S,4S)-1-[(2S)-2-Cyclobutyl-2-[(2S)-2-(methylamino)propanamido]acetyl]-4-[3-[4-(3-[[(3S,5S)-1-[(2S)-2-cyclobutyl-2-[(2S)-2-(methylamino)propanamido]acetyl]-5-[[(1R)-1,2,3,4-tetrahydronaphthalen-1-yl]carbamoyl]pyrrolidin-3-yl]oxy]propyl)piperazin-1-yl]propoxy]-N-[(1R)-1,2,3,4-tetrahydronaphthalen-1-yl]pyrrolidine-2-carboxamide] | 10 to 100 nM | 0.1 to 10 nM | 10 to 100 nM |
| CN[C@@H](C)C(=O)N[C@H](C(=O)N1C[C@@H](OCCC(=O)N2CCN(C(=O)CCO[C@H]3C[C@@H](C(=O)N[C@@H]4CCCc5ccccc54)N(C(=O)[C@@H](NC(=O)[C@H](C)NC)C4CCCCC4)C3)CC2)C[C@H]1C(=O)N[C@@H]1CCCc2ccccc21)C1CCCCC1 [Compound IV, (2S,4S)-1-[(2S)-2-Cyclohexyl-2-[(2S)-2-(methylamino)propanamido]acetyl]-4-{3-[4-(3-{[(3S,5S)-1-[(2S)-2-cyclohexyl-2-[(2S)-2-(methylamino)propanamido]acetyl]-5-{[(1R)-1,2,3,4-tetrahydronaphthalen-1-yl]carbamoyl}pyrrolidin-3-yl]oxy}propanoyl)piperazin-1-yl]-3-oxopropoxy}-N-[(1R)-1,2,3,4-tetrahydronaphthalen-1-yl]pyrrolidine-2-carboxamide] | 10 to 100 nM | 0.1 to 10 nM | 10 to 100 nM |
| CN[C@@H](C)C(=O)N[C@@H](C)C(=O)N1C[C@@H](OCCC(=O)N2CCN(C(=O)CCO[C@H]3C[C@@H](C(=O)N[C@@H]4CCCc5ccccc54)N(C(=O)[C@H](C)NC(=O)[C@H](C)NC)C3)CC2)C[C@H]1C(=O)N[C@@H]1CCCc2ccccc21 [Compound IV-A, (2S,4S)-1-[(2S)-2-[(2S)-2-(Methylamino)propanamido]propanoyl]-4-[3-[4-(3-[[(3S,5S)-1-[(2S)-2-[(2S)-2-(methylamino)propanamido]propanoyl]-5-[[(1R)-1,2,3,4-tetrahydronaphthalen-1-yl]carbamoyl]pyrrolidin-3-yl]oxy]propanoyl)piperazin-1-yl]-3-oxopropoxy]-N-[(1R)-1,2,3,4-tetrahydronaphthalen-1-yl]pyrrolidine-2-carboxamide] | 100 to 1000 nM | 0.1 to 10 nM | 10 to 100 nM |
| CC[C@H](NC(=O)[C@H](C)NC)C(=O)N1C[C@@H](OCCC(=O)N2CCN(C(=O)CCO[C@H]3C[C@@H](C(=O)N[C@@H]4CCCc5ccccc54)N(C(=O)[C@H](CC)NC(=O)[C@H](C)NC)C3)CC2)C[C@H]1C(=O)N[C@@H]1CCCc2ccccc21 [Compound IV-B, (2S, 4S)-1-[(2S)-2-[(2S)-2-(Methylamino)propanamido]butanoyl]-4-[3-[4-(3-[[(3S,5S)-1-[(2S)-2-[(2S)-2-(methylamino)propanamido]butanoyl]-5-[[(1R)-1,2,3,4-tetrahydronaphthalen-1-yl]carbamoyl]pyrrolidin-3-yl]oxy]propanoyl)piperazin-1-yl]-3-oxopropoxy]-N-[(1R)-1,2,3,4-tetrahydronaphthalen-1-yl]pyrrolidine-2-carboxamide] | 100 to 1000 nM | 0.1 to 10 nM | 10 to 100 nM |
| CN[C@@H](C)C(=O)N[C@H](C(=O)N1C[C@@H](OCCC(=O)N2CCN(C(=O)CCO[C@H]3C[C@@H](C(=O)N[C@@H]4CCCc5ccccc54)N(C(=O)[C@@H](NC(=O)[C@H](C)NC)C4CC4)C3)CC2)C[C@H]1C(=O)N[C@@H]1CCCc2ccccc21)C1CC1 [Compound IV-C, (2S,4S)-1-[(2S)-2-Cyclopropyl-2-[(2S)-2-(methylamino)propanamido]acetyl]-4-{3-[4-(3-{[(3S,5S)-1-[(2S)-2-cyclopropyl-2-[(2S)-2-(methylamino)propanamido]acetyl]-5-{[(1R)-1,2,3,4-tetrahydronaphthalen-1-yl]carbamoyl}pyrrolidin-3-yl]oxy}propanoyl)piperazin-1-yl]-3-oxopropoxy}-N-[(1R)-1,2,3,4-tetrahydronaphthalen-1-yl]pyrrolidine-2-carboxamide] | 100 to 1000 nM | 0.1 to 10 nM | 0.1 to 10 nM |
| CN[C@@H](C)C(=O)N[C@H](C(=O)N1C[C@@H](OCCC(=O)N2CCN(C(=O)CCO[C@H]3C[C@@H](C(=O)N[C@@H]4CCCc5ccccc54)N(C(=O)[C@@H](NC(=O)[C@H](C)NC)C(C)C)C3)CC2)C[C@H]1C(=O)N[C@@H]1CCCc2ccccc21)C(C)C [Compound IV-D, (2S, 4S)-1-[(2S)-3-Methyl-2-[(2S)-2-(methylamino)propanamido]butanoyl]-4-[3-[4-(3-[[(3S,5S)-1-[(2S)-3-methyl-2-[(2S)-2-(methylamino)propanamido]butanoyl]-5-[[(1R)-1,2,3,4-tetrahydronaphthalen-1-yl]carbamoyl]pyrrolidin-3-yl]oxy]propanoyl)piperazin-1-yl]-3-oxopropoxy]-N-[(1R)-1,2,3,4-tetrahydronaphthalen-1-yl]pyrrolidine-2-carboxamide] | 10 to 100 nM | 0.1 to 10 nM | 10 to 100 nM |
| CN[C@@H](C)C(=O)N[C@H](C(=O)N1C[C@@H](OCCC(=O)N2CCN(C(=O)CCO[C@H]3C[C@@H](C(=O)N[C@@H]4CCCc5ccccc54)N(C(=O)[C@@H](NC(=O)[C@H](C)NC)C4CCC4)C3)CC2)C[C@H]1C(=O)N[C@@H]1CCCc2ccccc21)C1CCC1 [Compound IV-G, (2S,4S)-1-[(2S)-2-Cyclobutyl-2-[(2S)-2-(methylamino)propanamido]acetyl]-4-[3-[4-(3-[[(3S,5S)-1-[(2S)-2-cyclobutyl-2-[(2S)-2-(methylamino)propanamido]acetyl]-5-[[(1R)-1,2,3,4-tetrahydronaphthalen-1-yl]carbamoyl]pyrrolidin-3-yl]oxy]propanoyl)piperazin-1-yl]-3-oxopropoxy]-N-[(1R)-1,2,3,4-tetrahydronaphthalen-1-yl]pyrrolidine-2-carboxamide] | 10 to 100 nM | 0.1 to 10 nM | 10 to 100 nM |
| CN[C@@H](C)C(=O)N[C@H](C(=O)N1C[C@@H](OCCOCCO[C@H]2C[C@@H](C(=O)N[C@@H]3CCCc4ccccc43)N(C(=O)[C@@H](NC(=O)[C@H](C)NC)C3CCCCC3)C2)C[C@H]1C(=O)N[C@@H]1CCCc2ccccc21)C1CCCCC1 [Compound V, (2S,4S)-1-[(2S)-2-Cyclohexyl-2-[(2S)-2-(methylamino)propanamido]acetyl]-4-[2-(2-[[(3S,5S)-1-[(2S)-2-cyclohexyl-2-[(2S)-2-(methylamino)propanamido]acetyl]-5-[[(1R)-1,2,3,4-tetrahydronaphthalen-1-yl]carbamoyl]pyrrolidin-3-yl]oxy]ethoxy)ethoxy]-N-[(1R)-1,2,3,4-tetrahydronaphthalen-1-yl] pyrrolidine-2-carboxamide] | 10 to 100 nM | 0.1 to 10 nM | 0.1 to 10 nM |
